The test system of the test is cortical cultures. The experiment in a line: Neuroprotection in cortical cultures after toxin (okadaic acid), MTT survival assay. In kind it is cell-based, rat. The settings on record: higher concentrations of GPE, FIG. 12, 24 hrs incubation, 8DIV. The method, then: One cortical hemisphere from a postnatal day 1 rat was used and collected into 4 ml of DMEM. Trituration was done with a 5 ml glass pipette and subsequently through an 18 gauge needle. Afterwards, the cell suspension was sieved through a 100 μm cell strainer and washed in 50 ml DMEM (centrifugation for 5 min at 250 g). […] After cells reached confluence, they were washed three times with PBS and adjusted to Neurobasal/B27 and incubated for another 3 days. This supernatant was frozen for transient storage until usage at −80° C. A dam was sacrificed by CO2-treatment in a chamber for up to 4 minutes and was prepared then for cesarean section. After surgery, the embryos were removed from their amniotic sacs, decapitated and the heads put on ice in DMEM/F12 medium for striatum and PBS+0.65% D(+)-glucose for cortex. The two cortical hemispheres were carefully removed by a spatula from the whole brain with the ventral side facing upside into a PBS +0.65% D(+)-glucose containing petri dish. […] Cells were counted and adjusted to 50,000 cells per 60 μl. […] The survival rate was determined by a colorimetric end-point MTT-assay at 595 nm in a multi-well plate reader. For the cerebellar microexplants four windows (field of 0.65 mm^2) with highest cell density were chosen and cells displaying neurite outgrowth were counted.

Each structure is given as a SMILES string.

`NCC(=O)N1CCC[C@H]1C(=O)N[C@@H](CCC(=O)O)C(=O)O` [GPE, glycyl-L-prolyl-L-glutamic acid]: the neuroprotection came out at 64%.

The values above are taken from patent US20030055004A1, “GPE analogs and peptidominetics” (priority 2001, published 2003).
